Results from patent US20040121946A9, “Inducing cellular immune responses to her2/neu using peptide and nucleic acid compositions” (priority 2002, published 2004).
Like-named read-outs stand apart in the source and are kept apart here. Where a SMILES comes first, the peptide text is derived from it. Where no end group is shown, it is not given here.

Key:
[1] = target: HLA-B*0702 (Homo sapiens, UniProt P01889); assay type: binding
[2] = system: B7-supertype molecules (B*0702, B*3501, B*5101, B*5301, B*5401); test: B7-supertype cross-reactive binding; set-up: species or system human; details: of five B7-supertype alleles tested
[3] = Table XXIV, B7 supermotif peptides

Compound | IC50 [1, 3] | No. of B7 Alleles Crossbound [2] | IC50 [1]
CC[C@H](C)[C@H](NC(=O)[C@@H]1CCCN1C(=O)[C@H](CC(C)C)NC(=O)[C@@H]1CCCN1C(=O)CNC(=O)[C@H](CCC(=O)O)NC(=O)[C@H](CCCNC(=N)N)NC(=O)[C@@H]1CCCN1C(=O)[C@H](CO)NC(=O)[C@@H]1CCCN1C(=O)[C@@H](N)Cc1ccccc1)C(=O)O [Her2/neu.1149.F1I11] | 190 nM | 3 | 
CC[C@H](C)[C@H](NC(=O)[C@@H](NC(=O)[C@H](CCCNC(=N)N)NC(=O)[C@H](CCSC)NC(=O)[C@H](CCC(N)=O)NC(=O)[C@H](C)NC(=O)[C@H](CCC(N)=O)NC(=O)[C@H](CC(N)=O)NC(=O)[C@@H]1CCCN1C(=O)[C@@H](N)Cc1ccccc1)[C@@H](C)CC)C(=O)O [Her2/neu.706.F1I10] | 290 nM | 4 | 
FPYDGIPA [Her2/neu.921.F1] |  | 4 | 423 nM
CC[C@H](C)[C@H](NC(=O)[C@H](C)NC(=O)[C@H](CCSC)NC(=O)[C@H](Cc1c[nH]c2ccccc12)NC(=O)[C@H](CCCCN)NC(=O)[C@@H](NC(=O)[C@@H]1CCCN1C(=O)[C@@H](N)Cc1ccccc1)[C@@H](C)CC)C(=O)O [Her2/neu.884.F1I8] | 22 nM | 3 | 
FPIKWMAL [Her2/neu.884.F1] |  | 4 | 0.6 nM
MPYGCLLDHVI [Her2/neu.801.I11] | 66 nM | 5 | 
CC(C)C[C@H](NC(=O)CNC(=O)[C@H](Cc1ccc(O)cc1)NC(=O)[C@H](CS)NC(=O)[C@@H](NC(=O)[C@H](CCCNC(=N)N)NC(=O)[C@H](C)NC(=O)[C@H](CS)NC(=O)[C@@H]1CCCN1C(=O)[C@@H](N)Cc1ccccc1)C(C)C)C(=O)O [Her2/neu.336.F1] | 190 nM | 3 | 
CC(C)C[C@H](NC(=O)[C@@H](NC(=O)[C@H](C)NC(=O)CNC(=O)[C@H](C)NC(=O)[C@@H]1CCCN1C(=O)[C@H](CCCNC(=N)N)NC(=O)[C@H](C)NC(=O)[C@H](C)NC(=O)[C@@H]1CCCN1C(=O)[C@@H](N)Cc1ccccc1)[C@@H](C)O)C(=O)O [Her2/neu.1157.F1] | 3.9 nM | 4 | 
CC(C)C[C@H](NC(=O)[C@@H]1CCCN1C(=O)[C@H](CO)NC(=O)[C@@H]1CCCN1C(=O)[C@H](CC(=O)O)NC(=O)[C@H](Cc1c[nH]cn1)NC(=O)[C@@H](NC(=O)[C@@H]1CCCN1C(=O)[C@@H](N)Cc1ccccc1)[C@@H](C)O)C(=O)O [Her2/neu.1101.F1] | 10 nM | 3 | 
CC[C@H](C)[C@H](NC(=O)[C@H](C)NC(=O)[C@H](CO)NC(=O)[C@@H](NC(=O)[C@@H](NC(=O)[C@H](CO)NC(=O)[C@@H](NC(=O)[C@H](CC(C)C)NC(=O)[C@@H]1CCCN1C(=O)[C@@H](N)Cc1ccccc1)[C@@H](C)O)[C@@H](C)CC)[C@@H](C)CC)C(=O)O [Her2/neu.649.F1I10] | 229 nM | 5 | 
CC(C)[C@H](NC(=O)[C@H](Cc1ccc(O)cc1)NC(=O)CNC(=O)[C@H](CC(=O)O)NC(=O)[C@@H](NC(=O)[C@H](CCC(=O)O)NC(=O)[C@H](CO)NC(=O)[C@@H]1CCCN1C(=O)[C@@H](N)Cc1ccccc1)[C@@H](C)O)C(=O)O [Her2/neu.1120.F1] | 204 nM | 3 | 
FPLPAARPI [Her2/neu.1155.F1I9] | 6.5 nM | 4 | 
FPAEQRASPI [Her2/neu.642.F1I10] | 3.1 nM | 3 | 
FPLAPSEGI [Her2/neu.1073.F1I9] | 100 nM | 4 | 
CPSGVKPDLSY [Her2/neu.600] | 183 nM | 1 | 
CC[C@H](C)[C@H](NC(=O)[C@@H](NC(=O)[C@H](Cc1c[nH]cn1)NC(=O)[C@H](CC(C)C)NC(=O)[C@H](CC(C)C)NC(=O)[C@H](C)NC(=O)[C@H](CCC(N)=O)NC(=O)[C@H](Cc1c[nH]cn1)NC(=O)[C@@H]1CCCN1C(=O)[C@@H](N)Cc1ccccc1)[C@@H](C)O)C(=O)O [Her2/neu.488.F1I10] | 86 nM | 4 | 
FPTHDPSPI [Her2/neu.1101.F1I9] | 108 nM | 4 | 

Compound | IC50 [1, 3] | No. of B7 Alleles Crossbound [2] | IC50 [1]
FPGKNGVI [Her2/neu.1174.F1I8] | 458 nM | 3 | 
CC[C@H](C)[C@H](NC(=O)[C@@H]1CCCN1C(=O)[C@H](CCSC)NC(=O)[C@H](Cc1ccc(O)cc1)NC(=O)[C@H](CO)NC(=O)[C@H](CC(C)C)NC(=O)[C@H](CC(=O)O)NC(=O)[C@@H]1CCCN1C(=O)[C@@H](N)Cc1ccccc1)C(=O)O [Her2/neu.605.F1] | 22 nM | 5 | 
CC[C@H](C)[C@H](NC(=O)[C@H](CO)NC(=O)[C@H](CCCNC(=N)N)NC(=O)[C@H](Cc1ccc(O)cc1)NC(=O)[C@H](Cc1ccccc1)NC(=O)[C@@H](NC(=O)[C@H](CO)NC(=O)[C@H](CC(=O)O)NC(=O)[C@H](CC(C)C)NC(=O)[C@@H]1CCCN1C(=O)[C@@H](N)Cc1ccccc1)[C@@H](C)O)C(=O)O [Her2/neu.998.F1I11] | 229 nM | 3 | 
CC[C@H](C)[C@H](NC(=O)[C@@H]1CCCN1C(=O)[C@H](CC(C)C)NC(=O)[C@@H]1CCCN1C(=O)CNC(=O)[C@H](CCC(=O)O)NC(=O)[C@H](CCCNC(=N)N)NC(=O)[C@@H]1CCCN1C(=O)[C@@H](N)Cc1ccccc1)C(=O)O [Her2/neu.1151.F1I9] | 0.3 nM | 3 | 
CC[C@H](C)[C@H](NC(=O)[C@H](CCC(=O)O)NC(=O)[C@H](CO)NC(=O)[C@@H](NC(=O)[C@H](CC(C)C)NC(=O)[C@H](CCC(=O)O)NC(=O)[C@H](CCCNC(=N)N)NC(=O)[C@H](Cc1ccccc1)NC(=O)[C@H](CCCNC(=N)N)NC(=O)[C@@H]1CCCN1C(=O)[C@@H](N)Cc1ccccc1)C(C)C)C(=O)O [Her2/neu.966.F1I11] | 229 nM | 5 | 
CC[C@H](C)[C@H](NC(=O)CNC(=O)[C@H](C)NC(=O)[C@@H]1CCCN1C(=O)[C@H](CCCNC(=N)N)NC(=O)[C@H](C)NC(=O)[C@H](C)NC(=O)[C@@H]1CCCN1C(=O)[C@@H](N)Cc1ccccc1)C(=O)O [Her2/neu.1157.F1I9] | 9.3 nM | 3 | 
CC[C@H](C)[C@H](NC(=O)[C@@H](NC(=O)[C@H](C)NC(=O)[C@H](CO)NC(=O)[C@@H](NC(=O)[C@@H](NC(=O)[C@H](CO)NC(=O)[C@@H](NC(=O)[C@H](CC(C)C)NC(=O)[C@@H]1CCCN1C(=O)[C@@H](N)Cc1ccccc1)[C@@H](C)O)[C@@H](C)CC)[C@@H](C)CC)C(C)C)C(=O)O [Her2/neu.649.F1I11] | 367 nM | 5 | 
FPSETDGYI [Her2/neu.1120.F1I9] | 220 nM | 4 | 
CC[C@H](C)[C@H](NC(=O)[C@H](CO)NC(=O)[C@H](CC(C)C)NC(=O)[C@H](CC(=O)O)NC(=O)[C@@H]1CCCN1C(=O)[C@H](CCCCN)NC(=O)[C@@H](NC(=O)CNC(=O)[C@H](CO)NC(=O)[C@@H]1CCCN1C(=O)[C@@H](N)Cc1ccccc1)C(C)C)C(=O)O [Her2/neu.600.F1I11] | 196 nM | 4 | 
CC[C@H](C)[C@H](NC(=O)[C@H](CO)NC(=O)[C@@H](NC(=O)[C@@H](NC(=O)[C@H](CO)NC(=O)[C@@H](NC(=O)[C@H](CC(C)C)NC(=O)[C@@H]1CCCN1C(=O)[C@@H](N)Cc1ccccc1)[C@@H](C)O)[C@@H](C)CC)[C@@H](C)CC)C(=O)O [Her2/neu.649.F1I9] |  | 5 | 
CC[C@H](C)[C@H](NC(=O)[C@H](CS)NC(=O)[C@H](CCCNC(=N)N)NC(=O)[C@H](CO)NC(=O)CNC(=O)[C@H](CCCCN)NC(=O)[C@H](CS)NC(=O)[C@H](CCSC)NC(=O)[C@@H]1CCCN1C(=O)[C@@H](N)Cc1ccccc1)C(=O)O [Her2/neu.196.F1] (H-FPMCKGSRCI-OH; N-terminus and C-terminus assumed) |  | 3 | 
CC[C@H](C)[C@H](NC(=O)[C@H](C)NC(=O)CNC(=O)[C@H](CO)NC(=O)[C@@H]1CCCN1C(=O)[C@@H](NC(=O)[C@H](CC(C)C)NC(=O)[C@@H]1CCCN1C(=O)[C@@H](N)Cc1ccccc1)[C@@H](C)O)C(=O)O [Her2/neu.698.F1I9] | 0.9 nM | 3 | 
CC(C)C[C@H](NC(=O)CNC(=O)[C@H](Cc1ccc(O)cc1)NC(=O)[C@H](CS)NC(=O)[C@@H](NC(=O)[C@H](CCCNC(=N)N)NC(=O)[C@H](C)NC(=O)[C@H](CS)NC(=O)[C@@H]1CCCN1C(=O)[C@@H](N)CCCCN)C(C)C)C(=O)O [Her2/neu.336] (H-KPCARVCYGL-OH) | 149 nM | 1 | 
CC(C)C[C@H](NC(=O)[C@H](C)NC(=O)[C@H](CCC(N)=O)NC(=O)[C@H](Cc1c[nH]cn1)NC(=O)[C@@H]1CCCN1C(=O)[C@@H](N)Cc1ccccc1)C(=O)N[C@@H](CC(C)C)C(=O)N[C@@H](Cc1c[nH]cn1)C(=O)N[C@H](C(=O)N[C@@H](C)C(=O)O)[C@@H](C)O [Her2/neu.488.F1] | 393 nM | 3 | 
CC(C)C[C@H](NC(=O)[C@@H]1CCCN1C(=O)[C@H](CO)NC(=O)[C@H](C)NC(=O)[C@@H]1CCCN1C(=O)[C@@H](N)Cc1ccccc1)C(=O)N[C@@H](CC(=O)O)C(=O)N[C@@H](CO)C(=O)N[C@H](C(=O)N[C@@H](Cc1ccccc1)C(=O)O)[C@@H](C)O [Her2/neu.995.F1] | 3.7 nM | 4 | 
CC(C)C[C@H](NC(=O)[C@H](CO)NC(=O)[C@H](CCCNC(=N)N)NC(=O)[C@H](Cc1ccc(O)cc1)NC(=O)[C@H](Cc1ccccc1)NC(=O)[C@@H](NC(=O)[C@H](CO)NC(=O)[C@H](CC(=O)O)NC(=O)[C@H](CC(C)C)NC(=O)[C@@H]1CCCN1C(=O)[C@@H](N)Cc1ccccc1)[C@@H](C)O)C(=O)O [Her2/neu.998.F1] | 42 nM | 4 | 
CC[C@H](C)[C@H](NC(=O)[C@H](CO)NC(=O)[C@@H](NC(=O)[C@H](CC(C)C)NC(=O)[C@@H]1CCCN1C(=O)[C@@H](N)CO)[C@@H](C)O)C(=O)N[C@H](C(=O)N[C@@H](CO)C(=O)N[C@@H](C)C(=O)N[C@H](C(=O)O)C(C)C)[C@@H](C)CC [Her2/neu.649] | 61 nM | 1 | 
